# According to paper PMC6003237 (Bioorganic & medicinal chemistry, 2017):
# Values joined by “and” are separate entries in the source; they are usually repeats but may differ in a detail not shown here. Equal values may be shown once. Read-outs that look alike come from different tables or passages of the source. *1 amine or outer side, *2 acyl side, *3 side chain or, on linkers, in order; H or OH if unused. Where a SMILES comes first, the peptide text is derived from it. [ ]: non-standard residue; d: D form. The star is where a group is joined. Emetine(N2') = CC[C@H]1CN2CCc3cc(OC)c(OC)cc3[C@@H]2C[C@@H]1C[C@@H]1c2cc(OC)c(OC)cc2CCN1*; PABC = O=C(OCc1ccc(N[*:1])cc1)[*:2]
# Tests used:
# mice [1] = conditions: for MTD (nmol injected): mice of average body weight 25 g; for dose producing acute toxicity (convulsions and death) / dose producing acute toxicity (convulsions and death), nmol: single IV injection
# PC-3 xenografts = conditions: dose of 8 mg/kg, earlier studies, ref not given; cited from earlier work
# [2] = tested on: NCI 60 cancer cell screen; conditions: ref not given; cited from earlier work
# DPPIV = conditions: activation by DPPIV; ref [9]; cited from earlier work
# [3] = tested on: different cancer cell lines; conditions: cited from earlier work
# LNCaP = assay: MTT cytotoxicity in PSA producing LNCaP cells; type: cell-based, human
# PC3 = assay: MTT cytotoxicity in non-PSA-producing PC3 cells; type: cell-based, human
# [4] = biological target: Purified native human prostate specific antigen (PSA) (Homo sapiens, UniProt P07288); assay: PSA-mediated hydrolysis of prodrug ex-vivo; type: biochemical; conditions: purified PSA
# CWR22Rv1 = assay: MTT cytotoxicity in low PSA-producing CWR22Rv1 cells; type: cell-based, human
# [5] = PBS, five-day incubation at 37 °C
# [6] = Stability / hydrolysis in 10% FBS; conditions: 10% FBS, five-day incubation at 37 °C
# [7] = Stability in human plasma; type: in vitro ADME; conditions: 48 h
# mice [8] = conditions: earlier studies of the authors, ref not given; cited from earlier work
# Purified native human prostate specific antigen (PSA), sequence (P07288 25-261): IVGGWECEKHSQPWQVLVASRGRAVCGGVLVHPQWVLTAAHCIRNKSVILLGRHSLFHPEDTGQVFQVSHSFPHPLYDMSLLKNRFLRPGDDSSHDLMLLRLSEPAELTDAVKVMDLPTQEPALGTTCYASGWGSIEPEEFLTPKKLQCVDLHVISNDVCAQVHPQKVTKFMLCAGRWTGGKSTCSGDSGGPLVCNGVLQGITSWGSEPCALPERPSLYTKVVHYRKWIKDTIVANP
smiles,measurement,setting,value
"CC[C@H]1CN2CCc3cc(OC)c(OC)cc3[C@@H]2C[C@@H]1C[C@H]1NCCc2cc(OC)c(OC)cc21 [Emetine, emetine, reference compound]",Effects/observations at higher doses,"mice [1]; IV injection, mice",Convulsion and death within 1 min of injection at 16 mg/kg
same,MTD (nmol injected),mice [1]; IV injection,416 nmol
same,dose producing acute toxicity (convulsions and death),mice [1]; mice,16 mg/kg
same,therapeutic efficacy,PC-3 xenografts,no therapeutic efficacy
same,GI50,[2],27 nM
"CC[C@H]1CN2CCc3cc(OC)c(OC)cc3[C@@H]2C[C@@H]1C[C@@H]1c2cc(OC)c(OC)cc2CCN1C(=O)OCc1ccc(NC(=O)[C@@H]2CCCN2C(=O)[C@H](C)N)cc1 [compound 10, 4-((S)-1-(L-Alanyl)pyrrolidine-2-carboxamido)benzyl (R)-1-(((2R,3R,11bS)-3-ethyl-9,10-dimethoxy-1,3,4,6,7,11b-hexahydro-2H-pyrido[2,1-a]isoquinolin-2-yl)methyl)-6,7-dimethoxy-3,4-dihydroisoquinoline-2(1H)-carboxylate]",time for efficient quantitative release of emetine,DPPIV,≤ 24 h
same,Effects/observations at higher doses,"mice [1]; IV injection, mice",Convulsion and death at higher doses
same,MTD (nmol injected),mice [1]; IV injection,1003 nmol and 1002 nmol
same,in vitro cytotoxicity compared to emetine,"[3]; cancer cell lines, ref [6]–[9]",equipotency with emetine
"CC[C@@H]1C[C@@H](C[C@@H]2c3cc(OC)c(OC)cc3CCN2C(=O)OCc2ccc(NC(=O)[C@H](CC(C)C)NC(=O)[C@H](CO)NC(C)=O)cc2)[C@H]2c3cc(OC)c(OC)cc3CCN2C1 [compound 15, 4-((S)-2-((S)-2-Acetamido-3-hydroxypropanamido)-4-methyl-pentanamido) benzyl (R)-1-(((2R,3R,11bS)-3-ethyl-9,10-dimethoxy-1,3,4,6,7,11b-hexahydro-2H-pyrido[2,1-a]isoquinolin-2-yl)methyl)-6,7-dimethoxy-3,4-dihydroisoquinoline-2(1H)-carboxylate]",concentration at which significant cytotoxicity was demonstrated,LNCaP; LNCaP (Fig. 3A),"10,000 nM"
same,concentration at which significant cytotoxicity was demonstrated,PC3; PC3 (Fig. 3B),"10,000 nM"
CC[C@H]1CN2CCc3cc(OC)c(OC)cc3[C@@H]2C[C@@H]1C[C@@H]1c2cc(OC)c(OC)cc2CCN1C(=O)OCc1ccc(NC(=O)[C@H](CC(C)C)NC(=O)[C@H](CO)NC(=O)[C@H](CCC(N)=O)NC(=O)[C@H](CC(C)C)NC(=O)[C@H](CCCCN)NC(=O)[C@H](CO)NC(=O)[C@H](CO)NC(=O)[C@H](Cc2c[nH]cn2)NC(C)=O)cc1 [compound 16] (Ac-HSSKLQSL[PABC]-{Emetine(N2')}),% of 14 observed after incubation with PSA (LCMS),[4]; 2 h,20%
same,% of 14 observed after incubation with PSA (LCMS),[4]; 6 h,50%
same,% of 14 observed after incubation with PSA (LCMS),[4]; 20 h,98%
same,IC50 fold higher than the IC50 of emetine,LNCaP; LNCaP,about 2 fold
same,IC50 fold higher than the IC50 of emetine,CWR22Rv1,about 2 fold
CC[C@H]1CN2CCc3cc(OC)c(OC)cc3[C@@H]2C[C@@H]1C[C@@H]1c2cc(OC)c(OC)cc2CCN1C(=O)OCc1ccc(NC(=O)[C@H](CC(C)C)NC(=O)[C@H](CO)NC(=O)[C@H](CCC(N)=O)NC(=O)[C@H](CC(C)C)NC(=O)[C@H](CCCCN)NC(=O)[C@H](CO)NC(=O)[C@H](CO)NC(=O)[C@H](Cc2cnc[nH]2)NC(C)=O)cc1 [compound 16] (Ac-HSSKLQSL[PABC]-{Emetine(N2')}),"stability (cleavage, hydrolysis/decomposition)",[5],no sign of cleavage or any form of hydrolysis/decomposition was detectable
same,observation at the MTD,mice [1]; 25 mg/kg (402 nmol) IV,acute distress followed by recovery within an hour of injection
same,Effects/observations at higher doses,"mice [1]; IV injection, mice",Convulsion started about 1 min post injection at higher doses
same,MTD (nmol injected),mice [1]; IV injection,402 nmol
same,dose producing acute toxicity (convulsions and death),mice [1]; mice,50 mg/kg
same,"dose producing acute toxicity (convulsions and death), nmol",mice [1]; mice,804 nmol
same,"stability (cleavage, hydrolysis/decomposition)",[6],no sign of cleavage or any form of hydrolysis/decomposition was detectable
same,times less cytotoxic in non-PSA producing cells than in PSA producing cells,"PC3; PC3 vs CWR22Rv1 and LNCaP, from IC50",7–9 times
same,stability in human plasma (detection of 14 or emetine),[7],Neither precursor 14 nor emetine was detected
CC[C@H]1CN2CCc3cc(OC)c(OC)cc3[C@@H]2C[C@@H]1C[C@@H]1c2cc(OC)c(OC)cc2CCN1C(=S)[S-].[Na+] [compound 18],Effects/observations at higher doses,"mice [1]; IV injection, mice",No remarkable behavior even at higher doses. Mice remained alive
same,MTD (nmol injected),mice [1]; IV injection,> 4320 nmol
same,in vitro cytotoxicity compared to emetine,"[3]; cancer cell lines, ref [6]–[9]",much less toxic in vitro compared to emetine
CC[C@H]1CN2CCc3cc(OC)c(OC)cc3[C@@H]2C[C@@H]1C[C@@H]1c2cc(OC)c(OC)cc2CCN1C(=O)/C=C(/C)C(=O)O [compound 19],Effects/observations at higher doses,"mice [1]; IV injection, mice",No remarkable behavior even at higher doses. Mice remained alive
same,MTD (nmol injected),mice [1]; IV injection,> 4218 nmol
same,in vitro cytotoxicity compared to emetine,[3],much less toxic in vitro compared to emetine
CC[C@H]1CN2CCc3cc(OC)c(OC)cc3[C@@H]2C[C@@H]1C[C@@H]1c2cc(OC)c(OC)cc2CCN1C(=O)/C=C(/CC(=O)O)C(=O)O [compound 20],Effects/observations at higher doses,"mice [1]; IV injection, mice",No remarkable behavior even at higher doses. Mice remained alive
same,MTD (nmol injected),mice [1]; IV injection,> 3926 nmol
same,in vitro cytotoxicity compared to emetine,[3],much less toxic in vitro compared to emetine
CC[C@H]1CN2CCc3cc(OC)c(OC)cc3[C@@H]2C[C@@H]1C[C@@H]1c2cc(OC)c(OC)cc2CCN1C(=O)/C(C)=C(/C)C(=O)O [compound 21],lethal dose,mice [8],32 mg/kg
same,Effects/observations at higher doses,"mice [1]; IV injection, mice",32 mg/kg (1318 nmol) is toxic like emetine
CC[C@H]1CN2CCc3cc(OC)c(OC)cc3[C@@H]2C[C@@H]1C[C@@H]1c2cc(OC)c(OC)cc2CCN1C(=O)CCC(=O)O [compound 22],Effects/observations at higher doses,"mice [1]; IV injection, mice",No remarkable behavior. Mice remained alive
same,MTD (nmol injected),mice [1]; IV injection,> 4305 nmol
same,in vitro cytotoxicity compared to emetine,[3],much less toxic in vitro compared to emetine
CC[C@H]1CN2CCc3cc(OC)c(OC)cc3[C@@H]2C[C@@H]1C[C@@H]1c2cc(OC)c(OC)cc2CCN1C(=O)[C@@H]1CCCN1C(=O)[C@H](C)N [compound 23],Effects/observations at higher doses,"mice [1]; IV injection, mice",Convulsion and death within 1 min of injection at 16 mg/kg (617 nmol)
same,dose producing acute toxicity (convulsions and death),mice [1]; mice,16 mg/kg
same,"dose producing acute toxicity (convulsions and death), nmol",mice [1]; mice,617 nmol
same,in vitro cytotoxicity compared to 10,"[3]; in vitro cytotoxicity assays, ref [9]",significantly less active
CC[C@H]1CN2CCc3cc(OC)c(OC)cc3[C@@H]2C[C@@H]1C[C@@H]1c2cc(OC)c(OC)cc2CCN1C(=O)OCc1ccc(NC(=O)[C@@H]2CCCN2C(=O)[C@H](C)NC(=O)[C@@H]2CCCN2C(=O)[C@H](C)NC(C)=O)cc1 [compound 24] (Ac-APAP[PABC]-{Emetine(N2')}),Effects/observations at higher doses,"mice [1]; IV injection, mice",Intermittent convulsion started 1 min post injection of 33 mg/kg dose (818 nmol). Death occurred after about 8 min
same,dose producing acute toxicity (convulsions and death),mice [1]; mice,33 mg/kg
same,"dose producing acute toxicity (convulsions and death), nmol",mice [1]; mice,818 nmol
CC[C@H]1CN2CCc3cc(OC)c(OC)cc3[C@@H]2C[C@@H]1C[C@@H]1c2cc(OC)c(OC)cc2CCN1C(=O)OCc1ccc([N+](=O)[O-])cc1 [compound 25],Effects/observations at higher doses,"mice [1]; IV injection, mice","No remarkable behavior, no sign of toxicity. Mice remained alive"
same,dose without any observable sign of toxicity,"mice [1]; IV injection, mice",64 mg/kg
same,"dose without any observable sign of toxicity, nmol","mice [1]; IV injection, mice",2425 nmol
same,MTD (nmol injected),mice [1]; IV injection,> 2425 nmol
same,fold less cytotoxic than emetine in vitro,"[3]; different cancer cell lines, ref [6]–[9]",about 200 fold
CC[C@H]1CN2CCc3cc(OC)c(OC)cc3[C@@H]2C[C@@H]1C[C@@H]1c2cc(OC)c(OC)cc2CCN1C(=S)Nc1ccccc1 [compound 26],dose without any observable sign of toxicity,"mice [1]; male, Balb/c, mouse, in vivo, iv",up to 100 mg/kg
same,in vitro cytotoxicity compared to emetine,"[3]; cancer cell lines, ref [6]–[9]",less cytotoxic in vitro than emetine
